Source: ChEMBL document CHEMBL1201862, “PubChem BioAssay data set” (2004)

Legend:
[1] = target: T1, Dual specificity protein phosphatase 6 (Rattus norvegicus, UniProt Q64346); experiment: MKP-3 phosphatase inhibitors, primary screen, biochemical, rat enzyme, in vitro (AID 425)
T1 sequence (Q64346 whole entry): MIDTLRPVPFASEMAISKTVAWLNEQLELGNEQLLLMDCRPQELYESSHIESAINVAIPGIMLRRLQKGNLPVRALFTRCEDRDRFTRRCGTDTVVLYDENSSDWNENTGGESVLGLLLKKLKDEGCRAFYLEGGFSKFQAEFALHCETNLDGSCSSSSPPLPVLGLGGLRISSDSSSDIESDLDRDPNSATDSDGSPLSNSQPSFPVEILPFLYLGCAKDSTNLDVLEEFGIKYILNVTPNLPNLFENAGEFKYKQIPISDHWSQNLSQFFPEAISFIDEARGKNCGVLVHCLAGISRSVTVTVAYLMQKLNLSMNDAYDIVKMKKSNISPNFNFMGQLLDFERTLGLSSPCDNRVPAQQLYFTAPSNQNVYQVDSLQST

[2] = target: Transitional endoplasmic reticulum ATPase (Homo sapiens, UniProt P55072, C522A); experiment: Luminescence counterscreen assay for p97 inhibitors: dose response biochemical high throughput screening assay to identify inhibitors of the C522A mutant p97 ATPase: synthesized compounds. [Related pubchem assays: 1481, 1517, 1551 ]
Chain of Transitional endoplasmic reticulum ATPase (Homo sapiens, UniProt P55072, C522A) (P55072 2-806 C522A limits assumed): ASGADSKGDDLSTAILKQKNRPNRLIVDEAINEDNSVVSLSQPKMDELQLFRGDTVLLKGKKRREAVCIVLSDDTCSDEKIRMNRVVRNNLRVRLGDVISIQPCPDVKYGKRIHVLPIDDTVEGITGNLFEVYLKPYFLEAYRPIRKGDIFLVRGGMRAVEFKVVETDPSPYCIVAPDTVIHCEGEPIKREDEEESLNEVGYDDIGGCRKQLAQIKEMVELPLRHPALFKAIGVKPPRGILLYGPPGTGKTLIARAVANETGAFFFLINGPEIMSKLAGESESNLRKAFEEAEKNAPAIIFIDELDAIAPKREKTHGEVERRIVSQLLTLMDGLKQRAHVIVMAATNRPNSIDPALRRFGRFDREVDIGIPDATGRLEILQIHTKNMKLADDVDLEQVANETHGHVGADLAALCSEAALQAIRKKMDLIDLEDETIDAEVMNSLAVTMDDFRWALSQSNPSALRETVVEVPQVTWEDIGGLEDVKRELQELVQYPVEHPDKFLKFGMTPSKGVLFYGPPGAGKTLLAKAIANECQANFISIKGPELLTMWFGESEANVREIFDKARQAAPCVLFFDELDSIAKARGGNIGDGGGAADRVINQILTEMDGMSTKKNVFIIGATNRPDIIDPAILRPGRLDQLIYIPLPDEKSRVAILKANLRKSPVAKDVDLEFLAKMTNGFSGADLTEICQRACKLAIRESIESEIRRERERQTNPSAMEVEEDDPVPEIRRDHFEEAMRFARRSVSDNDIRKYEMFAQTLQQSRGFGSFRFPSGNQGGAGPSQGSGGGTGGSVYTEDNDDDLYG

[3] = target: Transitional endoplasmic reticulum ATPase (Homo sapiens, UniProt P55072); experiment: Luminescence dose response biochemical high throughput screening assay for inhibitors of the p97 ATPase: synthesized compounds. [Related pubchem assays: 1481, 1517 ]
Chain of Transitional endoplasmic reticulum ATPase (Homo sapiens, UniProt P55072) (P55072 whole entry): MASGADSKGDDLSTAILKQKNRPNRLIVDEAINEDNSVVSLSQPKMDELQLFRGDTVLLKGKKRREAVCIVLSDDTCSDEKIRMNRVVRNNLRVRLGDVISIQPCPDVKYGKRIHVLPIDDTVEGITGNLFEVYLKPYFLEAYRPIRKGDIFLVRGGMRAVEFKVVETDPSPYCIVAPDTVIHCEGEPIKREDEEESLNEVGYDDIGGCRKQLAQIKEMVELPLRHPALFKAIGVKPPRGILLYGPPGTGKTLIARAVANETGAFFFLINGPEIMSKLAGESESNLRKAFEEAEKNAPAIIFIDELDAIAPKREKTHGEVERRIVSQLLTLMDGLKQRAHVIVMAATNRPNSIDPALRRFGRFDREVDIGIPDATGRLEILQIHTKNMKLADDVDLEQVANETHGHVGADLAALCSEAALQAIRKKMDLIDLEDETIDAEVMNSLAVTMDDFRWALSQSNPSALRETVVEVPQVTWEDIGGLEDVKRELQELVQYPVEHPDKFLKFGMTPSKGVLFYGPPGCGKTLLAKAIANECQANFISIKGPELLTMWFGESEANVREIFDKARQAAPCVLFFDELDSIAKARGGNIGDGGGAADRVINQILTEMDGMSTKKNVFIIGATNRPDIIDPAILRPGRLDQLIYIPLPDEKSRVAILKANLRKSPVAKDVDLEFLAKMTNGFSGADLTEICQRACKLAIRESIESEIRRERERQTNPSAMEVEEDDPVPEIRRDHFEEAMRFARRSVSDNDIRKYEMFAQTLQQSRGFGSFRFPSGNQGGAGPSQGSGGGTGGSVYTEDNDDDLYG

Row | Structure (SMILES) | IC50 [1] | IC50 [2] | IC50 [3]
1 | COC(=O)CCCc1nc2ccccc2s1 | > 100 µM (not active) | – | –
2 | N#C/C=C/c1ccccc1Nc1ccc(S(N)(=O)=O)cc1 | – | > 50 µM (not active) | > 50 µM (not active)
